Laboratory results taken from article PMC10932284 (International Journal of Molecular Sciences, 2024).
Where two headings read alike, the source gives them in different places.

Assays:
MtCA1 = target: T1, MtCA1 (Mycobacterium tuberculosis, UniProt P9WPJ7); test: biochemical; conditions: for Selectivity Index (SI) hCA II/MtCA1: ratio of Ki values
T1 construct: made in house

hCA II = target: hCA II; parameters: method as in PMID 31794211; conditions: stopped-flow CO2 hydrase assay; cited from earlier work
hCA I = target: hCA I; parameters: method as in PMID 31794211; conditions: stopped-flow CO2 hydrase assay; cited from earlier work
MtCA2 = target: T2, MtCA2 (Mycobacterium tuberculosis, UniProt P9WPJ9); test: stopped-flow CO2 hydrase assay, MtCA2; format: biochemical; conditions: for Selectivity Index (SI) hCA II/MtCA2: ratio of Ki values
T2 construct: made in house
Description: BTDs 2a-2t were submitted to a stopped-flow CO2 hydrase kinetic assay to evaluate the inhibitory profile against the mycobacterial β-CAs MtCA1, MtCA2, MtCA3 (Table 1), in comparison to the inhibitory effect on hCA I and II, which were selected due to their abundance in the human organism and thus off-target in this study.
A stopped-flow instrument from Applied Photophysics was utilized to assess the inhibition of CA-catalyzed CO2 hydration activity. […] The assay employed 20 mM HEPES (pH 8.3) as a buffer and 20 mM Na2SO4 to maintain constant ionic strength. The investigation focused on the initial rates of the CA-catalyzed CO2 hydration reaction over a duration of 10–100 s. CO2 concentrations ranging from 1.7 to 17 mM were employed to determine kinetic parameters and inhibition constants. For each inhibitor, a minimum of six traces of the initial 5–10% of the reaction were utilized to determine the initial velocity. Uncatalyzed rates were determined in a similar manner and subtracted from the overall observed rates. Inhibitor stock solutions (0.1 mM) were initially prepared in distilled–deionized water, followed by subsequent dilutions up to 0.01 nM with the assay buffer. To allow for the formation of the E-I complex, inhibitor and enzyme solutions were preincubated together for 15 min at room temperature before the assay. The inhibition constants were derived through nonlinear least-squares methods using PRISM and the Cheng–Prusoff equation, as previously reported, representing the mean from at least three different determinations.

MtCA3 = MtCA3 (Mycobacterium tuberculosis, UniProt P96878); test: biochemical; conditions: for Selectivity Index (SI) hCA II/MtCA3: ratio of Ki values; for Ki: stopped-flow CO2 hydrase assay, mean from three assays
[1] = system: M. tuberculosis strain susceptible to rifampicin and isoniazid; test: tuberculostatic activity assay, strain susceptible to rifampicin and isoniazid; format: cell-based, Mycobacterium tuberculosis; conditions: for number of M. tuberculosis colonies/standard inoculum volume (0.2 mL): 28 days, 37 °C; for growth inhibition of mycobacteria (in words): 1 µg/mL
[2] = stopped-flow CO2 hydrase assay, mean from three assays, read-out: Ki MtCA1
[3] = 1 µg/mL in Lowenstein Jensen medium
[4] = 2 µg/mL in Lowenstein Jensen medium

T2 sequence (P9WPJ9 whole entry, looked up): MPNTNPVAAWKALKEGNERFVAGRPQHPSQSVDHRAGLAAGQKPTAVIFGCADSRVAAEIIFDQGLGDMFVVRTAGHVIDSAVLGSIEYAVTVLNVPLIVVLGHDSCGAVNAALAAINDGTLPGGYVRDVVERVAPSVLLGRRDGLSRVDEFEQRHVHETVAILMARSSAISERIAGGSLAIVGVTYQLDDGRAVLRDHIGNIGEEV
T1 sequence (P9WPJ7 whole entry): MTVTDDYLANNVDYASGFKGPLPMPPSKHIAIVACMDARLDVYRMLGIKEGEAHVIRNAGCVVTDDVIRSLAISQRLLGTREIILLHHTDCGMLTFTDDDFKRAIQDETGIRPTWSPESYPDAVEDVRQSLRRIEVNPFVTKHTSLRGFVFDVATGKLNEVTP
Sequence of MtCA3 (P96878 550-764 limits assumed): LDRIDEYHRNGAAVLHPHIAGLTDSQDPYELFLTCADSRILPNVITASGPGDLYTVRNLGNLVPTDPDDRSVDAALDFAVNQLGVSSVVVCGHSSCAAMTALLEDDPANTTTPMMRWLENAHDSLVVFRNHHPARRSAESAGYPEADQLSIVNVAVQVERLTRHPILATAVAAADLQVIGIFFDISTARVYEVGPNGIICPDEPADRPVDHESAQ

SMILES	Selectivity Index (SI) hCA II/MtCA1 (MtCA1)	Ki (MtCA1; [2]) [nM]	Ki (hCA II) [nM]	Ki (hCA I) [nM]	Ki (MtCA2) [nM]	Selectivity Index (SI) hCA II/MtCA2 (MtCA2)	Selectivity Index (SI) hCA II/MtCA3 (MtCA3)	Ki (MtCA3) [nM]	number of M. tuberculosis colonies/standard inoculum volume (0.2 mL) [1, 3]	number of M. tuberculosis colonies/standard inoculum volume (0.2 mL) [1, 4] [colonies]	growth inhibition of mycobacteria (in words) [1]	Ki (MtCA1) [nM]
O=C1Nc2c(C(=O)O)cccc2S(=O)(=O)N1 [2r]	0.7	3280 ± 204	2450	5780	105 ± 6	23.2	37.4	65.4 ± 3.9	–	–	–	–
O=C1Nc2ccc(O)cc2S(=O)(=O)N1 [2t]	1.3	2390 ± 126	3020	1890	58.4 ± 4.1	51.8	66.3	45.6 ± 3.5	30–100 colonies	0	–	–
Cc1cccc2c1NC(=O)NS2(=O)=O [2b]	0.1	1460 ± 101	144	969	58.5 ± 1.7	2.5	6.8	21.3 ± 1.7	–	–	–	–
CN1C(=O)NS(=O)(=O)c2cc(Cl)ccc21 [2p]	2.0	1180 ± 75	2340	> 10000	135 ± 9	17.3	50.8	46 ± 3.3	–	–	–	–
CC(=O)Nc1nnc(S(N)(=O)=O)s1 [AAZ, acetazolamide, reference compound]	–	–	–	–	–	–	–	–	0 colonies	0	active	–
Cc1ccc2c(c1)S(=O)(=O)NC(=O)N2 [2c]	0.8	–	872	1070	41.3 ± 2	21.1	47.1	18.5 ± 1.6	0 colonies	0	active	1050 ± 65
CN1C(=O)NS(=O)(=O)c2ccccc21 [2o]	1.5	556 ± 37	853	3410	39.6 ± 2.1	21.5	26.2	32.5 ± 2.4	–	–	–	–
COc1ccc2c(c1)S(=O)(=O)NC(=O)N2 [2m]	0.7	2760 ± 166	1920	3810	152 ± 11	12.6	32.5	59.2 ± 4.2	–	–	–	–
CC(=O)/N=c1/sc(S(N)(=O)=O)nn1C [MTZ, reference compound]	–	–	–	–	–	–	–	–	30–100 colonies	0	–	–
O=C1Nc2c(Br)cccc2S(=O)(=O)N1 [2k]	0.5	993 ± 33	527	2320	458 ± 25	1.1	6.4	82.4 ± 4.9	–	–	–	–
O=C1NS(=O)(=O)c2cccc3c2N1CC3 [2q]	1.2	883 ± 24	1060	6860	599 ± 31	1.8	13.9	76.2 ± 5.6	–	–	–	–
O=C1Nc2c(Cl)cccc2S(=O)(=O)N1 [2i]	0.5	1500 ± 89	686	930	214 ± 13	3.2	15.5	44.3 ± 2.9	–	–	–	–
Cc1cc(C)c2c(c1)NC(=O)NS2(=O)=O [2f]	<0.3	> 10000	2940	1920	4480 ± 277	0.7	1.3	2250 ± 168	–	–	–	–
O=C1Nc2ccc(Cl)cc2S(=O)(=O)N1 [2j]	0.5	2460 ± 174	1140	1860	67.1 ± 4.3	17.0	28.7	39.8 ± 2.2	–	–	–	–
O=C1Nc2ccc(C(=O)O)cc2S(=O)(=O)N1 [2s]	1.4	–	6780	> 10000	223 ± 18	30.4	–	101 ± 5	–	–	–	4870 ± 315
Cc1ccc(C)c2c1NC(=O)NS2(=O)=O [2e]	<0.2	> 10000	2190	2540	2370 ± 167	0.9	1.4	1540 ± 91	–	–	–	–
O=C1Nc2ccc(Br)cc2S(=O)(=O)N1 [2l]	0.8	2960 ± 213	2360	4400	200 ± 14	11.8	26.2	90.1 ± 6.7	–	–	–	–
O=C1Nc2c(ccc3ccccc23)S(=O)(=O)N1 [2n]	0.5	1040 ± 41	484	2070	995 ± 35	0.5	4.0	120 ± 8	–	–	–	–
O=C1Nc2c(F)cccc2S(=O)(=O)N1 [2g]	0.1	1290 ± 96	140	547	62.9 ± 2.5	2.2	8.6	16.2 ± 1.1	–	–	–	–
O=C1Nc2ccc(F)cc2S(=O)(=O)N1 [2h]	–	1830 ± 137	534	1290	42.5 ± 1.6	–	–	–	0 colonies	0	active	–
O=C1Nc2ccccc2S(=O)(=O)N1 [2a]	0.1	1680 ± 93	150	866	68.6 ± 3.1	2.2	5.2	28.7 ± 2.1	–	0	–	–
Cc1cc(C)c2c(c1)S(=O)(=O)NC(=O)N2 [2d]	–	934 ± 78	764	1270	–	–	–	15.1 ± 0.9	0 colonies	0	active	–
